The results in this text go back to ChEMBL document CHEMBL3045138, “Peroxidizing Phytotoxic Activity of Pyrazoles” (J Pestic Sci, 1995).

In experiment [1] the test system is Scenedesmus acutus. In words: Phytotoxicity against Scenedesmus acutus assessed as inhibition of chlorophyll content after 16 hr by spectrophotometry relative to untreated control. The class given is functional.
For experiment [2], the system named is Scenedesmus acutus. Briefly: Growth inhibition of Scenedesmus acutus assessed as packed cell volume per ml of algal culture volume after 16 hr (reference value: 3.8 ul pcv/ml). The class given is functional.

With `C#CCOc1cc(N2C(=O)C3=C(CCCC3)C2=O)c(F)cc1Cl`, the “inhibition (INH)” value in experiment [1] is on record as 73.6%. Further, the Activity in experiment [2] is listed as 2.4 uL/ml.

Regarding `Fc1cc(Cl)c(OC(F)F)cc1-n1nc2c(c1Cl)CCCC2`, the “inhibition (INH)” value in experiment [1] is recorded as 89.7%. Also, the Activity in experiment [2] is 1.5 uL/ml.

As to `N#Cc1cnn(-c2c(Cl)cc(C(F)(F)F)cc2Cl)c1N`, the “inhibition (INH)” value in experiment [1] was found to be 61%. The Activity in experiment [2] stood at 2 uL/ml.

Take `COc1cc(-n2nc(C)c(C)c2C)c(F)cc1Cl`: in experiment [1], the “inhibition (INH)” value worked out at 0%. Also, the Activity in experiment [2] came out at 4.1 uL/ml.

For the compound `C/C=C/COc1cc(-n2nc(C)c(C)c2C)c(F)cc1Cl`, in experiment [1], the “inhibition (INH)” value turned out to be 17.2%. Besides, the Activity in experiment [2] was found to be 3.5 uL/ml.

Regarding `C#CCOc1cc(-n2nc(C)c(Cl)c2C)c(Cl)cc1Cl`, the “inhibition (INH)” value in experiment [1] turned out to be 0%. Also, in experiment [2], the Activity is recorded as 4 uL/ml.

Regarding `C#CCOc1cc(-n2nc(CC)c(Cl)c2CC)c(F)cc1Cl`, in experiment [1], the “inhibition (INH)” value is listed as 30.3%. Moreover, the Activity in experiment [2] was 2.7 uL/ml.

Take `Cc1nn(-c2cc(OC(C)C)c(Cl)cc2F)c(C)c1C`: the “inhibition (INH)” value in experiment [1] is recorded as 11.1%. Further, the Activity in experiment [2] amounted to 3.9 uL/ml.

Take `Cc1cc(C)n(-c2ccc(Cl)cc2F)n1`: the “inhibition (INH)” value in experiment [1] turned out to be 0%. The Activity in experiment [2] is on record as 4.1 uL/ml.

Consider `C#CCOc1cc(-n2nc(C)c(Cl)c2C)c(Cl)cc1F`, for which, in experiment [1], the “inhibition (INH)” value was determined as 26.7%. Besides, in experiment [2], the Activity was found to be 3.1 uL/ml.

For `C#CCOc1cc(-n2nc(C)c(Cl)c2C)c(F)cc1Cl`, in experiment [1], the “inhibition (INH)” value is reported as 38.5%. Moreover, the Activity in experiment [2] is recorded as 2.7 uL/ml.

Take `Cc1nn(-c2cc(OC(C)C)c(Cl)cc2F)c(C)c1[N+](=O)[O-]`: the “inhibition (INH)” value in experiment [1] was determined as 17.7%. For the same compound, the Activity in experiment [2] is listed as 3.5 uL/ml.

On to `C#CCOc1cc(-n2nc(C)c([N+](=O)[O-])c2C)c(F)cc1Cl`, for which the “inhibition (INH)” value in experiment [1] stood at 46%. Besides, the Activity in experiment [2] came out at 2.5 uL/ml.

As to `O=C1C2=C(CCCC2)C(=O)N1c1ccc(Cl)cc1` [CHLOROPHTHALIUM], the “inhibition (INH)” value in experiment [1] was 72.3%. Also, the Activity in experiment [2] came out at 2.5 uL/ml.

In the case of `CCOc1cc(Oc2ccc(C(F)(F)F)cc2Cl)ccc1[N+](=O)[O-]` [OXYFLUORFEN], the “inhibition (INH)” value in experiment [1] is 92.2%. Further, in experiment [2], the Activity was found to be 1.4 uL/ml.
